The results in this text go back to patent publication US4169197A, “6-Deoxyneamines aminoglycoside compounds” (The Upjohn Company, priority 1978, dated 1979).

SMILES strings stand for the structures. Values after ≈ are worked out from the molar mass of the structure shown. Like-named read-outs stand apart in the source and are kept apart here. A value given as a limit tells only on which side of the number the result lay.

Common to all, as to assay type: cell-based
The test system of one assay is S. aureus UC 76. The experiment in a line: standard microplate test in BHI Agar. The note with it: Staphylococcus aureus. The method, then:
(§1) The compounds VII, XI, XVβ, XVα and XVI were tested in a standard microplate test in BHI (Brain Heart Infusion) Agar at a concentration of 1 mg./ml. and dilutions thereof at 37° incubation temperature. The end points are read out 20 hours. BHI Agar is supplied by Difco Laboratories, Detroit, Mich.

Assay [1] deals with Ps. aeruginosa UC 95. The experiment in a line: standard microplate test in BHI Agar. To be noted: Pseudomonas aeruginosa. On the procedure:
as §1

For the next assay, the system named is S. faecalis UC 694. The experiment in a line: standard microplate test in BHI Agar. To be noted: Enterococcus faecalis. The method, then:
as §1

The subject of another assay is S. pneumoniae I UC 41. As to the kind of experiment: standard microplate test in BHI Agar. To be noted: Streptococcus pneumoniae, UC41, 20 h. On the procedure:
as §1

A further assay has as its system P. morganii UC 3186. The experiment in a line: standard microplate test in BHI Agar. The note with it: Morganella morganii. On the procedure: as §1
A further assay relates to S. typhi UC 215. As to the kind of experiment: standard microplate test in BHI Agar. To be noted: Salmonella enterica, 20 h. The method, then:
as §1

The next assay has as its system P. mirabilis UC 6671. As to the kind of experiment: standard microplate test in BHI Agar. The note with it: Proteus mirabilis, UC6671, 20 h. The method, then:
as §1

In assay [2] the test system is S. schottmuelleri UC 126. The experiment in a line: standard microplate test in BHI Agar. The note with it: 37°, 20 hours. On the procedure:
as §1

Assay [3] relates to P. vulgaris UC 93. The experiment in a line: standard microplate test in BHI Agar. To be noted: Proteus vulgaris, UC93, 20 h. On the procedure: as §1
The next assay concerns S. flexneri UC 143. The experiment in a line: standard microplate test in BHI Agar. To be noted: Shigella flexneri, UC143, 37°, 20 hours. The method, then:
as §1

The test system of a further assay is K. pneumoniae UC 58. As to the kind of experiment: standard microplate test in BHI Agar. The note with it: Klebsiella pneumoniae. The method, then:
as §1

Another assay has as its system P. rettgeri UC 339. As to the kind of experiment: standard microplate test in BHI Agar. The note with it: Providencia rettgeri. On the procedure:
as §1

The next assay concerns S. marcescens UC 131. As to the kind of experiment: standard microplate test in BHI Agar. To be noted: Serratia marcescens, UC131, 20 h. On the procedure: as §1
For the next assay, the system named is E. coli UC 45. As to the kind of experiment: standard microplate test in BHI Agar. The note with it: Escherichia coli, UC45, 37°, 20 hours, Table III, read-out: Minimum Inhibitory Concentration. The method, then: as §1
The test system of the next assay is S. pyogenes UC 152. As to the kind of experiment: standard microplate test in BHI Agar. The note with it: Streptococcus pyogenes. The method, then: as §1
For assay [4], the system named is Ps. aeruginosa UC 95. The experiment in a line: standard disc plate assay, zones of inhibition. To be noted: Pseudomonas aeruginosa, UC95; 1 mg/ml; 12.5 mm paper discs; Table I; read-out: Zones of Inhibition. The source says: (§2) The compounds of formulas (V, VII, IX, XI, XIV, XVI, and XIX) are active as antibacterials and can be used in various environments to erradicate or control susceptible microorganisms. Tables I and II set forth the in vitro antibacterial test results for representative compounds of the present invention. The results were obtained with a standard disc plate assay using 12.5 mm paper discs.

A further assay deals with S. gallinarum UC 265. The experiment in a line: standard disc plate assay, zones of inhibition. The note with it: Salmonella enterica, 12.5 mm paper discs, Table I, read-out: Zones of Inhibition.
Excerpt: as §2

The subject of a further assay is B. subtilis UC 564. As to the kind of experiment: standard disc plate assay, zones of inhibition. The note with it: Bacillus subtilis, UC564, 12.5 mm paper discs, Table I, read-out: Zones of Inhibition.
Excerpt: as §2

In assay [5] the test system is S. schottmuelleri UC 126. As to the kind of experiment: standard disc plate assay, zones of inhibition. To be noted: 12.5 mm paper discs, Table I.
Excerpt: as §2

The subject of assay [6] is P. vulgaris UC 93. The experiment in a line: standard disc plate assay, zones of inhibition. The note with it: Proteus vulgaris, UC93, 12.5 mm paper discs, Table I, read-out: Zones of Inhibition.
Excerpt: as §2

Another assay has as its system B. cereus UC 3145. As to the kind of experiment: standard disc plate assay, zones of inhibition. The note with it: Bacillus cereus, UC3145, 12.5 mm paper discs, Table I, read-out: Zones of Inhibition.
Excerpt: as §2

The test system of the next assay is S. aureus UC 80. As to the kind of experiment: standard disc plate assay, zones of inhibition. The note with it: Staphylococcus aureus, UC80, 12.5 mm paper discs, Table I, read-out: Zones of Inhibition.
Excerpt: as §2

A further assay concerns S. lutea UC 130. As to the kind of experiment: standard disc plate assay, zones of inhibition. The note with it: Micrococcus luteus, UC130; 1 mg/ml; 12.5 mm paper discs; Table I; read-out: Zones of Inhibition.
Excerpt: as §2

A further assay relates to K. pneumoniae UC 57. The experiment in a line: standard disc plate assay, zones of inhibition. The note with it: Klebsiella pneumoniae, UC57, 12.5 mm paper discs, Table I, read-out: Zones of Inhibition.
Excerpt: as §2

The test system of a further assay is E. coli UC 51. The experiment in a line: standard disc plate assay, zones of inhibition. To be noted: Escherichia coli, UC51, 12.5 mm paper discs, Table I, read-out: Zones of Inhibition.
Excerpt: as §2

For another assay, the system named is E. coli UC 311. As to the kind of experiment: standard microplate test in BHI Agar. The note with it: Escherichia coli, UC311, 20 h, read-out: Minimal Inhibitory Concentration. The method, then:
as §1

Setting [7] is: read-out: Minimum Inhibitory Concentration.
Setting [8] is: Table III, read-out: Minimum Inhibitory Concentration.
Where [9] appears, read: read-out: Minimal Inhibitory Concentration.
[10] abbreviates: Table IV, read-out: Minimal Inhibitory Concentration.

Turning to `NC[C@H]1O[C@H](O[C@H]2[C@H](O)C[C@H](N)C[C@@H]2N)[C@H](N)[C@@H](O)[C@@H]1O` [6-deoxyneamine (XI), 6-deoxyneamine], the MIC was 3.9 µg/mL (≈ 12.7 µM) in the assay with S. aureus UC 76 (UC76, BHI Agar, 37°, 20 hours, Table III, read-out: Minimum Inhibitory Concentration); > 500 µg/mL with Ps. aeruginosa UC 95 [1] (UC95, 20 h, read-out: Minimum Inhibitory Concentration); > 500 µg/mL in the assay with S. faecalis UC 694 (UC694, 20 h, read-out: Minimum Inhibitory Concentration); 62.5 µg/mL (≈ 204 µM) in the assay with S. pneumoniae I UC 41 (setting [7]); 62.5 µg/mL (≈ 204 µM) with P. morganii UC 3186 (UC3186, 20 h, read-out: Minimum Inhibitory Concentration); 31.2 µg/mL (≈ 102 µM) with S. typhi UC 215 (setting [7]). Also, the MIC was 62.5 µg/mL (≈ 204 µM) in the assay with P. mirabilis UC 6671 (setting [7]); 31.2 µg/mL (≈ 102 µM) in the assay on S. schottmuelleri UC 126 [2] (setting [8]); 31.2 µg/mL (≈ 102 µM) in the assay with P. vulgaris UC 93 [3] (setting [7]); 62.5 µg/mL (≈ 204 µM) with S. flexneri UC 143 (setting [8]); 7.8 µg/mL (≈ 25.5 µM) with K. pneumoniae UC 58 (UC58, 20 h, read-out: Minimum Inhibitory Concentration); 250 µg/mL (≈ 816 µM) in the assay with P. rettgeri UC 339 (UC339, 20 h, read-out: Minimum Inhibitory Concentration). Also, the MIC in the assay on S. marcescens UC 131 (setting [7]) turned out to be 250 µg/mL (≈ 816 µM); with E. coli UC 45, 31.2 µg/mL (≈ 102 µM); in the assay with S. pyogenes UC 152 (UC152, 20 h, read-out: Minimum Inhibitory Concentration), 15.6 µg/mL (≈ 50.9 µM).
With `NC[C@H]1O[C@H](O[C@@H]2[C@@H](N)C[C@@H](N)C[C@H]2O[C@@H]2O[C@H](CO)[C@@H](O)[C@H]2O)[C@H](N)[C@@H](O)[C@@H]1O` [Compound XVβ, O-2,6-diamino-2,6-dideoxy-α-D-glucopyranosyl (1→4)-O-[β-D-ribofuranosyl(1→5)]-2,6-dideoxy-D-streptamine], the zone of inhibition at 1000 µg/mL in the assay with Ps. aeruginosa UC 95 [4] was 15 mm; in the assay on S. gallinarum UC 265 (1 mg/ml), 29 mm; in the assay on B. subtilis UC 564 (1 mg/ml), 39 mm; in the assay on S. schottmuelleri UC 126 [5] (1 mg/ml), 24 mm; in the assay with P. vulgaris UC 93 [6] (1 mg/ml) it was 27 mm; in the assay on B. cereus UC 3145 (1 mg/ml), 26 mm. For the same compound, the zone of inhibition at 1000 µg/mL in the assay on S. aureus UC 80 (1 mg/ml) amounted to 27 mm; in the assay with S. lutea UC 130, 19 mm; with K. pneumoniae UC 57 (1 mg/ml), 36 mm; in the assay with E. coli UC 51 (1 mg/ml) it was 27 mm. In addition, the zone of inhibition at 100 µg/mL is 21 mm in the assay on S. gallinarum UC 265 (0.1 mg/ml); 31 mm with B. subtilis UC 564 (0.1 mg/ml); 16 mm in the assay with S. schottmuelleri UC 126 [5] (0.1 mg/ml); 18 mm in the assay with P. vulgaris UC 93 [6] (0.1 mg/ml); 17 mm in the assay with B. cereus UC 3145 (0.1 mg/ml); 19 mm in the assay with S. aureus UC 80 (0.1 mg/ml). Besides, the zone of inhibition at 100 µg/mL with K. pneumoniae UC 57 (0.1 mg/ml) came out at 28 mm; with E. coli UC 51 (0.1 mg/ml), 20 mm. In addition, the MIC in the assay with S. aureus UC 76 (UC76, 20 h, read-out: Minimal Inhibitory Concentration) is 31.2 µg/mL (≈ 71.2 µM); in the assay with Ps. aeruginosa UC 95 [1] (UC95, BHI Agar, 37°, 20 hours, Table IV, read-out: Minimal Inhibitory Concentration), > 500 µg/mL; in the assay with S. faecalis UC 694 (UC694, BHI Agar, 37°, 20 hours, Table IV, read-out: Minimal Inhibitory Concentration) it was 500 µg/mL (≈ 1140 µM); with S. pneumoniae I UC 41 (setting [9]), 15.6 µg/mL (≈ 35.6 µM); in the assay on P. morganii UC 3186 (UC3186, BHI Agar, 37°, 20 hours, Table IV, read-out: Minimal Inhibitory Concentration) it was 7.8 µg/mL (≈ 17.8 µM); in the assay with S. typhi UC 215 (setting [9]) it was 15.6 µg/mL (≈ 35.6 µM). Besides, the MIC in the assay on E. coli UC 311 amounted to 31.2 µg/mL (≈ 71.2 µM); in the assay with P. mirabilis UC 6671 (setting [9]), 125 µg/mL (≈ 285 µM); in the assay with S. schottmuelleri UC 126 [2] (setting [10]) it was 7.8 µg/mL (≈ 17.8 µM); in the assay with P. vulgaris UC 93 [3] (setting [9]), 31.2 µg/mL (≈ 71.2 µM); in the assay with S. flexneri UC 143 (setting [10]), 31.2 µg/mL (≈ 71.2 µM); in the assay on K. pneumoniae UC 58 (UC58, BHI Agar, 37°, 20 hours, Table IV, read-out: Minimal Inhibitory Concentration), 2 µg/mL (≈ 4.56 µM). In addition, the MIC in the assay on P. rettgeri UC 339 (UC339, BHI Agar, 37°, 20 hours, Table IV, read-out: Minimal Inhibitory Concentration) is > 500 µg/mL; in the assay with S. marcescens UC 131 (setting [9]), 62.5 µg/mL (≈ 143 µM); in the assay with S. pyogenes UC 152 (UC152, BHI Agar, 37°, 20 hours, Table IV, read-out: Minimal Inhibitory Concentration), 3.9 µg/mL (≈ 8.89 µM).
